Measurements from PubChem BioAssay AID298 (DTP/NCI, 2004).
Inconclusive results are not listed.

System: MX-1 breast xenograft, intrarenal, nude mice, tumor weight
Assay: NCI In Vivo Anticancer Drug Screen. Data for tumor model Human Mammary Carcinoma MX-1 Xenograft (intrarenal inoculation) in NU/NU BALB/C (nude) mice
Conditions: endpoint: mean tumor weight change, higher = larger tumour
Method in brief: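 Mice w/ transplanted tumors, drug vs vehicle; endpoint survival or tumor size; value = T/C.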

[1] = dose: 150.0 mg/kg/injection, schedule: Q04DX003 (ip), vehicle: saline with Tween-80
[2] = dose: 300.0 mg/kg/injection, schedule: Q04DX003 (ip), vehicle: saline with Tween-80
[3] = dose: 50.0 mg/kg/injection, schedule: Q04DX003 (ip), vehicle: saline with Tween-80

## CN=C(N)N/N=C(\C)c1ccc2sc3ccc(/C(C)=N/NC(N)=NC)cc3c2c1
[1]
  T/C: 90 % of control
[2]
  T/C: 59 % of control

## CCC(/C=C/C1OC(=O)C=CC1C)=C\C(C)C/C=C/C(C)=C/C(C)C(=O)C(C)C(O)C(C)C/C(C)=C/C(=O)O (stereo not given)
dose: 1.0 mg/kg/injection, schedule: Q04DX003 (ip), vehicle: saline + alcohol
  T/C: 114 % of control
dose: 2.0 mg/kg/injection, schedule: Q04DX003 (ip), vehicle: saline + alcohol
  T/C: 109 % of control
dose: 4.0 mg/kg/injection, schedule: Q04DX003 (ip), vehicle: saline + alcohol
  T/C: 71 % of control
dose: 75.0 micrograms/kg/injection, schedule: Q04DX003 (ip), vehicle: saline + alcohol
  T/C: 119 % of control
dose: 150.0 micrograms/kg/injection, schedule: Q04DX003 (ip), vehicle: saline + alcohol
  T/C: 114 % of control
dose: 300.0 micrograms/kg/injection, schedule: Q04DX003 (ip), vehicle: saline + alcohol
  T/C: 107 % of control
dose: 600.0 micrograms/kg/injection, schedule: Q04DX003 (ip), vehicle: saline + alcohol
  T/C: 102 % of control

## COC(=O)[C@@]12OC[C@]34[C@H]([C@@H](O)[C@@H]1O)[C@@]1(C)CC(=O)C(O)=C(C)[C@@H]1C[C@H]3OC(=O)[C@H](OC(=O)/C=C(\C)C(C)C)[C@@H]24
dose: 1.0 mg/kg/injection, schedule: Q01DX010 (sc), vehicle: saline + alcohol
  T/C: 51 % of control

## COc1ccc2c(c1)n([O-])c1ccccc1[n+]2=O
[3]
  T/C: 40 % of control
dose: 100.0 mg/kg/injection, schedule: Q04DX003 (ip), vehicle: saline with Tween-80
  T/C: 48 % of control
dose: 200.0 mg/kg/injection, schedule: Q04DX003 (ip), vehicle: saline with Tween-80
  T/C: 36 % of control

## O=NNc1ccc2cccnc2n1
dose: 37.5 mg/kg/injection, schedule: Q04DX003 (ip), vehicle: other
  T/C: 6 % of control
dose: 37.5 mg/kg/injection, schedule: Q04DX003 (ip), vehicle: water
  T/C: 63 % of control
dose: 75.0 mg/kg/injection, schedule: Q04DX003 (ip), vehicle: other
  T/C: -45 % of control
dose: 75.0 mg/kg/injection, schedule: Q04DX003 (ip), vehicle: water
  T/C: 17 % of control
dose: 150.0 mg/kg/injection, schedule: Q04DX003 (ip), vehicle: water
  T/C: 9 % of control

## Cc1cc(=NO)cc(C)n1O
dose: 300.0 mg/kg/injection, schedule: Q04DX003 (sc), vehicle: distilled water + alcohol
  T/C: 116 % of control
dose: 1200.0 mg/kg/injection, schedule: Q04DX003 (sc), vehicle: distilled water + alcohol
  T/C: 90 % of control
dose: 2400.0 mg/kg/injection, schedule: Q04DX003 (sc), vehicle: distilled water + alcohol
  T/C: 89 % of control

## C=C(C)C(=O)O[C@H]1CC2=C[C@@H](C[C@@]3(C)O[C@@H]3[C@H]3OC(=O)C(=C)[C@@H]31)OC2=O
dose: 37.5 mg/kg/injection, schedule: Q04DX003 (sc), vehicle: Klucel (hydroxypropylcellulose) (HPC)
  T/C: 96 % of control
dose: 75.0 mg/kg/injection, schedule: Q04DX003 (sc), vehicle: Klucel (hydroxypropylcellulose) (HPC)
  T/C: 78 % of control
dose: 150.0 mg/kg/injection, schedule: Q04DX003 (sc), vehicle: Klucel (hydroxypropylcellulose) (HPC)
  T/C: 104 % of control
dose: 300.0 mg/kg/injection, schedule: Q04DX003 (sc), vehicle: Klucel (hydroxypropylcellulose) (HPC)
  T/C: 72 % of control

## CN(C)C(=O)Nc1ccc(Cl)cc1
dose: 150.0 mg/kg/injection, schedule: Q04DX003 (ip), vehicle: suspension in saline
  T/C: 71 % of control
dose: 300.0 mg/kg/injection, schedule: Q04DX003 (ip), vehicle: suspension in saline
  T/C: 98 % of control
dose: 600.0 mg/kg/injection, schedule: Q04DX003 (ip), vehicle: suspension in saline
  T/C: 91 % of control

## Oc1ccc(/C=N/N=C/c2ccc(O)c(O)c2)cc1O
dose: 75.0 mg/kg/injection, schedule: Q04DX003 (ip), vehicle: saline with Tween-80
  T/C: 68 % of control
[1]
  T/C: 46 % of control
[2]
  T/C: 78 % of control
dose: 1200.0 mg/kg/injection, schedule: Q04DX003 (ip), vehicle: saline with Tween-80
  T/C: 82 % of control

## O=C1C=CC(=CC=C2C=CN(CCCCCCCCCCCO)C=C2)C=C1
dose: 12.5 mg/kg/injection, schedule: Q04DX003 (ip), vehicle: saline with Tween-80
  T/C: 89 % of control
dose: 25.0 mg/kg/injection, schedule: Q04DX003 (ip), vehicle: saline with Tween-80
  T/C: 84 % of control
[3]
  T/C: 69 % of control
